{"source": "patent US8173145B2", "about": "“Formulation containing phosphate derivatives of electron transfer agents” (Vital Health Sciences Pty. Ltd., priority 2000, dated 2012)", "assay": "foam stability / surface active properties test", "assay_type": "physicochemical", "details": "0.1 g in 10 ml distilled water, shaken; foam examined daily over four days", "method": "0.1 g of pure di-sodium mono-tocopheryl phosphate was dissolved in 10 ml of pure distilled water in a 50 ml cylindrical stoppered vessel.", "data": [{"compound": "Cc1c(C)c2c(c(C)c1OP(=O)([O-])[O-])CC[C@@](C)(CCC[C@H](C)CCC[C@H](C)CCCC(C)C)O2.[Na+].[Na+]", "note": "[di-sodium mono-tocopheryl phosphate]", "values": [{"measurement": "Foam stability", "value": "complete stability for one day"}]}]}
